Source: patent US10934310B2, “Inhibitors of Bruton's tyrosine kinase and method of their use” (JANSSEN PHARMACEUTICA NV, priority 2015, dated 2021)

Biological target: unphosphorylated-BTK kinase domain (UP-BTK), GST-tagged human BTK (389-659aa) (Homo sapiens (Human), UniProt Q06187)
Test: BTK Kinase Lanthascreen Binding Assay
Conditions: Lanthascreen binding, 60 minutes incubation; pIC50 = negative log of the IC50 in molar
Procedure: BTK Kinase Lanthascreen Binding Assay:
A BTK kinase lanthascreen binding assay monitors compound binding to unphosphorylated-BTK kinase domain (UP-BTK), by competing with a fluorescent labeled tracer. […] Data were analyzed using Xlfit™ version 5.3 from ID Business Solutions (Guildford), Microsoft Excel add-in. pIC50 refers to the negative log of the IC50 in molar.

Chain of unphosphorylated-BTK kinase domain (UP-BTK), GST-tagged human BTK (389-659aa) (Q06187 389-659): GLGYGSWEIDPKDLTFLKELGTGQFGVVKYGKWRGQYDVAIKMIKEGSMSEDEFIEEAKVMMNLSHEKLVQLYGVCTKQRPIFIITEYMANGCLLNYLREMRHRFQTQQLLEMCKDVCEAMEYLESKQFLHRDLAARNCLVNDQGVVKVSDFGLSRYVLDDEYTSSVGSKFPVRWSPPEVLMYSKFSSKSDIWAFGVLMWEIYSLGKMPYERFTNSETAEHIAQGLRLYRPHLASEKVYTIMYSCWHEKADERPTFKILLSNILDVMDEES

| SMILES | BTK_I_binding pIC50 |
| --- | --- |
| C=CC(=O)N[C@H]1CCC[C@H]1NC(=O)c1sc2nccc3c2c1NC(=O)N3c1ccc(OC2CCOCC2)cc1C (single isomer, unassigned) [Example 304, N-((1R,2S)-2-Acrylamidocyclopentyl)-5-(*S)-(2-methyl-4-((tetrahydro-2H-pyran-4-yl)oxy)phenyl)-4-oxo-4,5-dihydro-3H-1-thia-3,5,8-triazaacenaphthylene-2-carboxamide] | 7.48 |
| C=CC(=O)N[C@@H]1CCC[C@@H](NC(=O)c2sc3nccc4c3c2NC(=O)N4c2ccc(Oc3ccccc3)cn2)C1 (relative stereo) [Example 344, N-((1*R,3*R)-3-Acrylamidocyclohexyl)-4-oxo-5-(5-phenoxypyridin-2-yl)-4,5-dihydro-3H-1-thia-3,5,8-triazaacenaphthylene-2-carboxamide] | 6.11 |
| C=CC(=O)N[C@H]1CCC[C@H](NC(=O)c2sc3nccc4c3c2NC(=O)N4c2ccc(Oc3ccccc3)cn2)C1 (single isomer, unassigned) [Example 315, N-((1*S,3*S)-3-Acrylamidocyclohexyl)-4-oxo-5-(5-phenoxypyridin-2-yl)-4,5-dihydro-3H-1-thia-3,5,8-triazaacenaphthylene-2-carboxamide] | 7.50 |
| C=CC(=O)N[C@@H]1CCC[C@H]1NC(=O)c1sc2nccc3c2c1NC(=O)N3c1cccc(-c2cccnc2)c1 [Example 324, N-((1R,2R)-2-Acrylamidocyclopentyl)-4-oxo-5-(3-(pyridin-3-yl)phenyl)-4,5-dihydro-3H-1-thia-3,5,8-triazaacenaphthylene-2-carboxamide] | 6.90 |

Second part, the molecule after the results:

| BTK_I_binding pIC50 | SMILES |
| --- | --- |
| 6.28 | Cc1nc(Oc2ccccc2)ccc1N1C(=O)Nc2c(C(=O)N[C@@H]3CCC[C@H]3N)sc3nccc1c23 (single isomer, unassigned) [Example 339, N-((1R,2R)-2-Aminocyclopentyl)-5-(*S)-(2-methyl-6-phenoxypyridin-3-yl)-4-oxo-4,5-dihydro-3H-1-thia-3,5,8-triazaacenaphthylene-2-carboxamide] |
| 6.73 | Cc1cc(Oc2ccccc2)ccc1N1C(=O)Nc2c(C(=O)N[C@H]3CCCC[C@H]3NC(=O)CN)sc3nccc1c23 (single isomer, unassigned) [Example 444, N-((1S,2R)-2-(2-Aminoacetamido)cyclohexyl)-5-(*S)-(2-methyl-4-phenoxyphenyl)-4-oxo-4,5-dihydro-3H-1-thia-3,5,8-triazaacenaphthylene-2-carboxamide] |
| 6.26 | CC(=O)N[C@H]1CC[C@@H](NC(=O)c2sc3nccc4c3c2NC(=O)N4c2cnc(Oc3ccccc3)cc2C)C1 (single isomer, unassigned) [Example 403, N-((1R,3S)-3-Acetamidocyclopentyl)-5-(*S)-(4-methyl-6-phenoxypyridin-3-yl)-4-oxo-4,5-dihydro-3H-1-thia-3,5,8-triazaacenaphthylene-2-carboxamide] |
| 7.07 | Cc1cc(Oc2ccccc2)ccc1N1C(=O)Nc2c(C(=O)N[C@@H]3CCCC[C@H]3N)sc3nccc1c23 (single isomer, unassigned) [Example 440, N-((1R,2R)-2-aminocyclohexyl)-5-(*S)-(2-methyl-4-phenoxyphenyl)-4-oxo-4,5-dihydro-3H-1-thia-3,5,8-triazaacenaphthylene-2-carboxamide] |
| 7.49 | C=CC(=O)N[C@H]1CCC[C@H]1NC(=O)c1sc2nccc3c2c1NC(=O)N3c1cnc(Oc2cccc(C)n2)cc1C [Example 483, N-((1R,2S)-2-Acrylamidocyclopentyl)-5-(4-methyl-6-((6-methylpyridin-2-yl)oxy)pyridin-3-yl)-4-oxo-4,5-dihydro-3H-1-thia-3,5,8-triazaacenaphthylene-2-carboxamide] |
| 6.32 | Cc1cc(OC(C)C)ccc1N1C(=O)Nc2c(C(=O)N[C@@H]3CCC[C@@H]3N)sc3nccc1c23 [Example 453, N-((1R,2S)-2-Aminocyclopentyl)-5-(4-isopropoxy-2-methylphenyl)-4-oxo-4,5-dihydro-3H-1-thia-3,5,8-triazaacenaphthylene-2-carboxamide] |
| 6.92 | Cc1cc(Oc2ccccc2)ncc1N1C(=O)Nc2c(C(=O)N[C@@H]3CCCC[C@@H]3N)sc3nccc1c23 (single isomer, unassigned) [Example 375, N-((1R,2S)-2-Aminocyclohexyl)-5-(*S)-(4-methyl-6-phenoxypyridin-3-yl)-4-oxo-4,5-dihydro-3H-1-thia-3,5,8-triazaacenaphthylene-2-carboxamide] |
| 6.66 | CC(=O)N[C@H]1CCC[C@H]1NC(=O)c1sc2nccc3c2c1NC(=O)N3c1ccc(Oc2ccccc2)cc1 [Example 396, N-((1R,2S)-2-Acetamidocyclopentyl)-4-oxo-5-(4-phenoxyphenyl)-4,5-dihydro-3H-1-thia-3,5,8-triazaacenaphthylene-2-carboxamide] |

Same assay, conditions: compound, 50 nM Tracer 236, 2 nM anti-GST antibody, 60 minutes; pIC50 = negative log of the IC50 in molar

| BTK_I_binding pIC50 | SMILES |
| --- | --- |
| 6.10 | N[C@@H]1CCC[C@@H]1NC(=O)c1sc2nccc3c2c1NC(=O)N3c1ccc(Oc2ccccc2)cc1 [Example 98, N-((1S,2R)-2-Aminocyclopentyl)-4-oxo-5-(4-phenoxyphenyl)-4,5-dihydro-3H-1-thia-3,5,8-triazaacenaphthylene-2-carboxamide] |
| 7.66 | C=CC(=O)N[C@@H]1CCC[C@@H](NC(=O)c2sc3nccc4c3c2NC(=O)N4c2ccc(Oc3ccccc3)cc2C)C1 (single isomer, unassigned) [Example 182, N-((1R,3R)-3-Acrylamidocyclohexyl)-5-(*S)-(2-methyl-4-phenoxyphenyl)-4-oxo-4,5-dihydro-3H-1-thia-3,5,8-triazaacenaphthylene-2-carboxamide] |
| 7.33 | C=CC(=O)N[C@H]1CCC[C@H]1NC(=O)c1sc2nccc3c2c1NC(=O)N3c1ccc(OC2CCOCC2)cc1C [Example 206, N-((1R,2S)-2-Acrylamidocyclopentyl)-5-(2-methyl-4-((tetrahydro-2H-pyran-4-yl)oxy)phenyl)-4-oxo-4,5-dihydro-3H-1-thia-3,5,8-triazaacenaphthylene-2-carboxamide] |
| 7.92 | C=CC(=O)N[C@H]1CCC[C@H]1NC(=O)c1sc2nccc3c2c1NC(=O)N3c1cncc(-c2ccccc2)c1 [Example 192, N-((1R,2S)-2-Acrylamidocyclopentyl)-4-oxo-5-(5-phenylpyridin-3-yl)-4,5-dihydro-3H-1-thia-3,5,8-triazaacenaphthylene-2-carboxamide] |
| 6.36 | Cc1cc(Oc2ccccc2)ccc1N1C(=O)Nc2c(C(=O)N[C@@]34C[C@@H]5C[C@@H](C[C@@](O)(C5)C3)C4)sc3nccc1c23 [Example 30, N-((1r,3s,5R,7S)-3-Hydroxyadamantan-1-yl)-5-(2-methyl-4-phenoxyphenyl)-4-oxo-4,5-dihydro-3H-1-thia-3,5,8-triazaacenaphthylene-2-carboxamide] |
| 7.00 | Cc1cc(Oc2ccccc2)ccc1N1C(=O)Nc2c(C(=O)N[C@@H]3CC[C@@H](N)C3)sc3nccc1c23 [Example 236, N-((1R,3R)-3-Aminocyclopentyl)-5-(2-methyl-4-phenoxyphenyl)-4-oxo-4,5-dihydro-3H-1-thia-3,5,8-triazaacenaphthylene-2-carboxamide] |
| 7.41 | Cc1cc(Oc2ccccc2)ccc1N1C(=O)Nc2c(C(=O)N[C@@H]3CCC[C@H]3O)sc3nccc1c23 [Example 9, N-((1R,2R)-2-Hydroxycyclopentyl)-5-(2-methyl-4-phenoxyphenyl)-4-oxo-4,5-dihydro-3H-1-thia-3,5,8-triazaacenaphthylene-2-carboxamide] |
| 5.29 | Cc1cc(Oc2ccccc2)ccc1N1C(=O)Nc2c(C(=O)N[C@H]3CCCC[C@@H]3N(C)C)sc3nccc1c23 [Example 62, N-((1S,2S)-2-(Dimethylamino)cyclohexyl)-5-(2-methyl-4-phenoxyphenyl)-4-oxo-4,5-dihydro-3H-1-thia-3,5,8-triazaacenaphthylene-2-carboxamide] |
| 6.85 | CNC1CCC(NC(=O)c2sc3nccc4c3c2NC(=O)N4c2ccc(Oc3ccccc3)cc2C)CC1 (stereo not shown) [Example 63, 5-(2-Methyl-4-phenoxyphenyl)-N-(4-(methylamino)cyclohexyl)-4-oxo-4,5-dihydro-3H-1-thia-3,5,8-triazaacenaphthylene-2-carboxamide] |
| 6.94 | C=CC(=O)N[C@H]1CC[C@H](NC(=O)c2sc3nccc4c3c2NC(=O)N4c2ccc(Oc3ccccc3)cc2C)CC1 [Example 13, N-((1R,4R)-4-Acrylamidocyclohexyl)-5-(2-methyl-4-phenoxyphenyl)-4-oxo-4,5-dihydro-3H-1-thia-3,5,8-triazaacenaphthylene-2-carboxamide] |
| 7.07 | Cc1cc(Oc2ccccc2)ccc1N1C(=O)Nc2c(C(=O)N[C@H]3CCC[C@@H]3NC(=O)CN(C)C)sc3nccc1c23 (single isomer, unassigned) [Example 123, N-((1S,2S)-2-(2-(Dimethylamino)acetamido)cyclopentyl)-5-(*S)-(2-methyl-4-phenoxyphenyl)-4-oxo-4,5-dihydro-3H-1-thia-3,5,8-triazaacenaphthylene-2-carboxamide] |
| 7.94 | C=CC(=O)N[C@@H]1CCC[C@H]1NC(=O)c1sc2nccc3c2c1NC(=O)N3c1cnc(Oc2ccccc2)nc1C (single isomer, unassigned) [Example 219, N-((1R,2R)-2-Acrylamidocyclopentyl)-5-(*S)-(4-methyl-2-phenoxypyrimidin-5-yl)-4-oxo-4,5-dihydro-3H-1-thia-3,5,8-triazaacenaphthylene-2-carboxamide] |

Same assay, conditions: read-out: BTK_I_binding pIC50 (converted)

| IC50 [nM] | SMILES |
| --- | --- |
| > 1000 | CNCC(=O)N[C@@H]1CCC[C@@H]1NC(=O)c1sc2nccc3c2c1NC(=O)N3c1ccnc(-c2ccccc2)c1 [Example 286, N-((1S,2R)-2-(2-(Methylamino)acetamido)cyclopentyl)-4-oxo-5-(2-phenylpyridin-4-yl)-4,5-dihydro-3H-1-thia-3,5,8-triazaacenaphthylene-2-carboxamide] |
